In patent US9955691B2, “Macrocyclic picolinamides as fungicides” (DOW AGROSCIENCES LLC, priority 2014, dated 2018):
Read-outs that look alike come from different tables or passages of the source.

Columns and labels:
[1] = tested on: Mycosphaerella graminicola; Anamorph: Septoria tritici; assay: Fungicidal activity: Leaf Blotch of Wheat (SEPTTR); type: in vivo; conditions: Zymoseptoria tritici, wheat leaf blotch; for pest or weed control at 121.5 g/ha: Low Volume (121.5 g/H); for pest or weed control at 100 µg/mL: High Volume (100 ppm)
In short: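 Compounds were dissolved in acetone, diluted with nine volumes of water containing 110 ppm Triton X-100, and sprayed to run-off on first-leaf Yuma wheat seedlings inoculated with Septoria tritici spores before or after treatment. Plants were held in a dew chamber, then a 20° C. greenhouse. Percent control was derived from disease severity relative to untreated plants.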

Puccinia triticina = assay: Fungicidal activity: Wheat Brown Rust (PUCCRT); type: in vivo; conditions: for pest or weed control at 121.5 g/ha: Low Volume (121.5 g/H); for pest or weed control at 100 µg/mL: High Volume (100 ppm)
In short: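 Wheat seedlings (Yuma, first leaf) sprayed to run-off with compound in acetone/water with Triton X-100, inoculated with Puccinia triticina before or after treatment. Held overnight in dark dew at 22° C, then greenhouse at 24° C; percent disease control from severity versus untreated plants.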

[2] = 24 h, 1 Day Protectant, read-out: SEPTTR 1 DP disease control
[3] = 72 h, 3 Day Curative, read-out: SEPTTR 3 DC disease control
[4] = 24 h, 1 Day Protectant, read-out: PUCCRT 1 DP disease control
[5] = 72 h, 3 Day Curative, read-out: PUCCRT 3 DC disease control

| SMILES | pest or weed control at 121.5 g/ha [1, 2] [%] | pest or weed control at 121.5 g/ha [1, 3] [%] | pest or weed control at 121.5 g/ha (Puccinia triticina; [4]) [%] | pest or weed control at 121.5 g/ha (Puccinia triticina; [5]) [%] | pest or weed control at 100 µg/mL [1, 2] [%] | pest or weed control at 100 µg/mL [1, 3] [%] | pest or weed control at 100 µg/mL (Puccinia triticina; [4]) [%] | pest or weed control at 100 µg/mL (Puccinia triticina; [5]) [%] |
| --- | --- | --- | --- | --- | --- | --- | --- | --- |
| COc1ccnc(C(=O)N[C@H]2COC[C@H](Cc3ccccc3)[C@@H](CCC(C)C)[C@H](C)OC2=O)c1OCOC(C)=O [compound 85] | > 70 | > 70 | > 70 | > 70 | – | – | – | – |
| COc1ccnc(C(=O)N[C@H]2COC[C@H](CCC(C)C)[C@@H](C3CCCC3)[C@H](C)OC2=O)c1OCOC(=O)C(C)C [compound 94, ((2-(((3S,7R,8R,9S)-8-cyclopentyl-7-isopentyl-9-methyl-2-oxo-1,5-dioxonan-3-yl)carbamoyl)-4-methoxypyridin-3-yl)oxy)methyl isobutyrate] | > 70 | > 70 | > 70 | < 70 | – | – | – | – |
| CCC[C@H]1COC[C@H](NC(=O)c2nccc(OC)c2OCOC(C)=O)C(=O)O[C@@H](C)[C@@H]1c1ccccc1 [compound 97] | > 70 | > 70 | > 70 | > 70 | – | – | – | – |
| CCC[C@H]1COC[C@H](NC(=O)c2nccc(OC)c2OC(C)=O)C(=O)O[C@@H](C)[C@@H]1c1ccccc1 [compound 98] | > 70 | > 70 | > 70 | > 70 | – | – | – | – |
| CCC[C@H]1COC[C@H](NC(=O)c2nccc(OC)c2OCOC(=O)C(C)C)C(=O)O[C@@H](C)[C@@H]1c1ccccc1 [compound 99] | > 70 | > 70 | > 70 | > 70 | – | – | – | – |
| COc1ccnc(C(=O)N[C@H]2COC[C@H](CC3CC3)[C@@H](c3ccccc3)[C@H](C)OC2=O)c1OCOC(C)=O [compound 101] | > 70 | > 70 | > 70 | > 70 | – | – | – | – |
| COc1ccnc(C(=O)N[C@H]2COC[C@H](CC3CC3)[C@@H](c3ccccc3)[C@H](C)OC2=O)c1OCOC(=O)C(C)C [compound 102] | > 70 | > 70 | > 70 | > 70 | – | – | – | – |
| CCOCC(=O)OCOc1c(OC)ccnc1C(=O)N[C@H]1COC[C@H](CC2CC2)[C@@H](c2ccccc2)[C@H](C)OC1=O [compound 103] | > 70 | > 70 | > 70 | > 70 | – | – | – | – |
| COc1ccnc(C(=O)N[C@H]2COC[C@H](CC3CC3)[C@@H](Cc3ccc(F)cc3)[C@H](C)OC2=O)c1OCOC(C)=O [compound 104] | > 70 | > 70 | > 70 | > 70 | – | – | – | – |
| CCCC[C@@H]1[C@@H](Cc2ccccc2)COC[C@H](NC(=O)c2nccc(OC)c2O)C(=O)O[C@H]1C [compound 110] | – | – | – | – | > 70 | > 70 | < 70 | < 70 |
| COc1ccnc(C(=O)N[C@H]2COC[C@@H]3CCCC[C@H]3[C@@H](C)OC2=O)c1O [compound 114] | – | – | – | – | > 70 | < 70 | > 70 | > 70 |
| COc1ccnc(C(=O)N[C@H]2COC[C@H](CCC(C)C)[C@@H](CCC(C)C)[C@H](C)OC2=O)c1O [compound 117] | – | – | – | – | > 70 | < 70 | > 70 | > 70 |
| C=C(C)COC[C@@H]1[C@@H](Cc2ccccc2)COC[C@H](NC(=O)c2nccc(OC)c2O)C(=O)O[C@H]1C [compound 120] | – | – | – | – | < 70 | < 70 | < 70 | < 70 |
| COc1ccnc(C(=O)N[C@H]2COC[C@H](Cc3ccccc3)[C@@H](COCC(C)C)[C@H](C)OC2=O)c1O [compound 121] | – | – | – | – | < 70 | > 70 | < 70 | < 70 |
| COc1ccnc(C(=O)N[C@@H]2COC[C@@H](Cc3ccccc3)[C@H](COCC(C)C)[C@@H](C)OC2=O)c1O [compound 122] | – | – | – | – | < 70 | < 70 | < 70 | < 70 |
